Test results taken from patent publication US20050214938A1, “Cardiac bodies: clusters of spontaneously contracting cells for regenerating cardiac function” (priority 2004, published 2005).

Legend:
[1] = tested on: hES-derived cardiomyocytes; assay: Pharmacological response: contraction rate of beating areas; assay type: cell-based, human; conditions: for chronotropic effect: FIG. 5 Panels B-E
Procedure: EBs were plated on to gelatin-coated 24-well plates and allowed to differentiate, as in Example 2. Contracting cardiomyocytes at differentiation day 15-21 were used for examining pharmacological response. The frequency of the spontaneous beating was measured by counting the contraction rate of the beating areas maintained in the differentiation medium in a 37° C. heating chamber of an inverted microscope. The cells were then incubated with test compounds in the incubator for 20-30 min, and observed for contraction rate. Dose-dependent effects were determined by cumulatively applying of increasing concentrations of each substrate. Data represent the mean pulsation rate±standard error of the mean measured on 10-20 beating areas.
Differentiated cells were incubated with various concentrations of the drug and the number of beats per minute was counted. The cells were then washed with medium, maintained in differentiation medium for 24 h and observed for the time taken to recover contractility.

[2] = tested on: hES cells of the H1 or H9 line
Procedure: hES cells of the H1 or H9 line being cultured as embryoid bodies were treated at differentiation day 1-4,4-6 or 6-8 with 5-aza-deoxy-cytidine, a cytosine analog that affects DNA methylation, thereby activating gene expression. Cells were harvested at day 15, and analyzed for cardiac α-MHC by real-time RT-PCR.
The RT-PCR assay from Example 3 was adapted for the Taqman™ 7700 sequence detection system using the same primers, amplifying for 40 cycles at 95° C. for 15 sec and 60° C. for 1 min. 18S ribosomal RNA was amplified for a control using a kit for Taqman™ ribosomal RNA control reagents (Applied Biosystems). Reactions were analyzed by ABI Prism™ 7700 Sequence Detection system.
Other reagents examined for an ability to induce cardiomyocyte differentiation included dimethyl sulfoxide (DMSO) and all-trans retinoic acid (RA).
Retinoic acid was applied to differentiating hES cultures at doses between 10^−9 and 10^−[…].

[3] = tested on: cardiomyogenic cell line from bone marrow stroma; conditions: treated for 24 hours; cited from earlier work
hES cells of the H7 line = assay: Direct differentiation paradigm without embryoid body stage; assay type: cell-based, human; conditions: 10 μM at day 10-12 or 12-14
Procedure: Cardiomyocyte differentiation was also achieved in a direct differentiation paradigm. Undifferentiated hES cells of the H7 line were dissociated and plated directly onto gelatin-coated plates without going through an embryoid body stage. The plated cells were cultured in differentiation medium (80% KO-DMEM, 1 mM L-glutamine, 0.1 mM p-mercaptoethanol, 1% amino acids, and 20% fetal bovine serum). Contracting cardiomyocytes were found at day 18 in cultures treated with 10 μM 5-aza-deoxy-cytidine at day 10-12 or 12-14, and at later times in all cultures.

mouse ES cells = conditions: Wobus et al. 1997; cited from earlier work

## COc1ccc([C@@H]2Sc3ccccc3N(CCN(C)C)C(=O)[C@@H]2OC(C)=O)cc1 [diltiazem]
[1]; 10^−5 M
  beating areas that stopped contraction: 100%
[1]; differentiation day 15-21, 20-30 min incubation, increasing concentrations
  inhibition of beating rate: concentration-dependent manner

## C[S+](C)[O-] [DMSO, dimethyl sulfoxide]
[2]
  toxicity to the cells: toxic
[2]; 0.5%, days 0-4
  beating areas compared with non-treated cultures: fewer beating areas
[2]; 0.8% or 1%
  beating cells: absent
[2]; DMSO treatment
  α-MHC expression compared with untreated cultures: significant reduction

## Nc1ncn([C@@H]2O[C@H](CO)[C@@H](O)[C@H]2O)c(=O)n1 [5-azacytidine]
[3]
  cells forming myotube-like structures, acquiring cardiomyocyte markers and beginning to beat: 30%

## Nc1ncn([C@H]2C[C@H](O)[C@@H](CO)O2)c(=O)n1 [5-aza-deoxy-cytidine]
hES cells of the H7 line
  day at which contracting cardiomyocytes were found: 18 days
[2]; 1 to 10 μM at day 6-8, harvested day 15
  expression of cardiac α-MHC: significantly increased

## CNC[C@H](O)c1cccc(O)c1 [phenylephrine]
[1]
  chronotropic effect: positive chronotropic effects

## CC(C)NCC(O)c1ccc(O)c(O)c1 (centres unmarked) [isoprenaline]
[1]
  chronotropic effect: positive chronotropic effects

## CC(C)(C)NCC(O)c1cc(Cl)c(N)c(Cl)c1 (centres unmarked) [clenbuterol]
[1]; cells taken at Day 72, 1-10 nM, from about 72 beats/min, p<0.005
  beating rate after treatment: about 98 beats/min

## CC1=C(/C=C/C(C)=C/C=C/C(C)=C/C(=O)O)C(C)(C)CCC1 [RA, all-trans retinoic acid]
Mouse ES cells
  effect on cardiac differentiation: accelerates ES cell-derived cardiac differentiation
[2]; days 4-8, 8-15, or 4-15, doses between 10^−9 and 10^−5 μM
  beating cells compared with untreated cultures: no increase
